From patent publication US20220296583A1, “COMPOSITIONS AND METHODS FOR TREATMENT OF OVARIAN AND BREAST CANCER” (Board of Regents, The University of Texas System, priority 2021, published 2022)
Entries after “also recorded” stand apart in the source; their conditions may differ.

How the values were obtained:
[1] = test system: OVCAR8, SKOv3, OC316, MDA4772 and ES2 ovarian cancer cell lines; experiment: Clonogenic survival assay, Compound B and carboplatin; assay type: cell-based; conditions: 12-14 days; five cell lines
Description: Cell viability was measured with a bioluminescence assay as described in the Examples, and IC50 values were calculated. (B) Sensitivity to carboplatin. Eight ovarian cancer cell lines were treated as above with different concentrations of carboplatin as indicated. […] The drug concentration ratio is indicated in each plot. The combination index at 50% growth inhibition was calculated using CalcuSyn software. (E) Effect of SIK2 knockout on the carboplatin dose response curve. Cells were treated with different concentrations of carboplatin as indicated. IC50 values for (A-C, E) were calculated by GraphPad Prism 8. […] Four hundred OVCAR8 or SKOv3 ovarian cancer cells were seeded in 6-well plates in culture medium for 24 h. […] The graphs indicate the mean colony formation numbers with standard deviations.
Cancer cells were seeded in 6-well plates at a density of 400 cells per well in culture medium for 24 h to permit cell adherence. […] After control colonies had grown to include at least 50 cells, cultures were fixed and stained with Coomassie blue (0.1% Coomassie brilliant blue R-250, 40% methanol, and 10% acetic acid) and counted. Colonies were counted from three independent experiments and the mean number of colonies and standard deviations calculated. Multiplicity adjusted p values for each treatment and control were determined.

[2] = Pre-clinical toxicology studies; assay type: in vivo
[3] = test system: MDA-MB-231 orthotopic xenografts; experiment: MDA-MB-231 orthotopic xenografts; assay type: in vivo, mice
Description: To evaluate additive or synergistic interactions, a combination Index (CI value) was calculated with CalcuSyn software.

[4] = test system: SKOv3, OVCAR8, HCC5032, or MDA-MB-231 cells; experiment: DNA damage: γ-H2AX staining and comet assay with olaparib; assay type: cell-based; conditions: SKOv3, OVCAR8, HCC5032, MDA-MB-231
Description: Cells were trypsinized and resuspended at 2×10^5/mL in cold PBS without Ca^2+ and Mg^2+. Cells were mixed with pre-warmed comet agarose at 1:10 (v/v) ratio. 10 uL of cell agarose mixture was plated onto comet slides pre-coated with 75 uL of agarose and chilled at 4° C. for 15 min to set. Cells were lysed in 25 mL of Lysis buffer at 4° C. for 2 hrs and washed with alkaline solution (pH 10). Comet slides were electrophoresed in cold alkaline solution at 20V for 15 min. Slides were rinsed with water and dried in 70% ethanol for 5 min. Slides were then stained with Vista Green DNA dye and viewed using an Olympus epifluorescence microscope with a FITC filter. Images were captured using a 20× objective. […] Experiments were run in triplicate and Olive Tail Moment was measured using CaspLab1.2.3β2 software (CaspLab.com). Olive Tail Moment=Tail DNA %×Tail Length. 50-200 Cells were measured for each treatment and experiments were repeated twice independently to ensure reproducibility.
Cells on 22×22 mm coverslips were fixed in 4% formaldehyde in PBS (Thermo Fisher, J19943-K2) and permeabilized with 0.1% Triton X-100 (Sigma, X100) in PBS for 15 min. Cells were blocked with 5% BSA in PBS for 30 min and then stained with antibody overnight at 4° C., followed by secondary antibody and DAPI for 1 hr. […] After 24-hrs incubation, cells were fixed in 4% formaldehyde in PBS. Cells were stained as described above. […] DNA damage visualized by γ-H2AX staining was evaluated by counting nuclear γ-H2AX puncta in each cell. […] After 8 hrs incubation, cells were fixed in 4% formaldehyde in PBS. Cells were stained as described above. Images were captured using an Olympus IX71 microscope and nuclear γ-H2AX puncta in each cells were counted using with Olympus CellSens Dimension software. HDAC5 (CST20458) and γ-H2AX (CST2577) antibodies were purchased from Cell Signaling Technology. Experiments were repeated twice independently to ensure reproducibility and 50-200 cells were counted for each treatment.

[5] = test system: OVCAR8, SKOv3, and OC316 ovarian cancer cell lines; experiment: γ-H2AX punctae and comet assay, Compound B and carboplatin; conditions: 24 h
Description: (B) Cells were treated as described in (A) for 24 h. Then cells were dislodged, immobilized in agarose gel onto glass slide, and lysed. DNA was electrophoresed in alkaline buffer and stained by Vista Green. Olive tail moment (OTL) was measured as described in the Examples. Each plot depicts the mean of OTL (the bars indicate the standard deviation).
The OxiSelect™ Comet Assay Kit (Cell Biolabs, Inc., San Diego, Calif., USA) was used to evaluate DNA damage with or without drug treatment. […] Slides were electrophoresed in alkaline buffer at 1 volt/cm for 30 min. The cells were stained with 1× Vista Green DNA Dye for 15 min at RT and then viewed with a 4× fluorescence microscope. The percentage of DNA in the tail were analyzed with Casplab_1.2.3b2 (CaspLab Comet Assay Software, CASPLab, casplab.com). At least 50 randomly selected cells were analyzed per sample.

[6] = biological target: SIK1 (Homo sapiens, UniProt P57059); experiment: SIK isoform dose response; assay type: biochemical
SIK1, sequence (P57059 whole entry, canonical isoform): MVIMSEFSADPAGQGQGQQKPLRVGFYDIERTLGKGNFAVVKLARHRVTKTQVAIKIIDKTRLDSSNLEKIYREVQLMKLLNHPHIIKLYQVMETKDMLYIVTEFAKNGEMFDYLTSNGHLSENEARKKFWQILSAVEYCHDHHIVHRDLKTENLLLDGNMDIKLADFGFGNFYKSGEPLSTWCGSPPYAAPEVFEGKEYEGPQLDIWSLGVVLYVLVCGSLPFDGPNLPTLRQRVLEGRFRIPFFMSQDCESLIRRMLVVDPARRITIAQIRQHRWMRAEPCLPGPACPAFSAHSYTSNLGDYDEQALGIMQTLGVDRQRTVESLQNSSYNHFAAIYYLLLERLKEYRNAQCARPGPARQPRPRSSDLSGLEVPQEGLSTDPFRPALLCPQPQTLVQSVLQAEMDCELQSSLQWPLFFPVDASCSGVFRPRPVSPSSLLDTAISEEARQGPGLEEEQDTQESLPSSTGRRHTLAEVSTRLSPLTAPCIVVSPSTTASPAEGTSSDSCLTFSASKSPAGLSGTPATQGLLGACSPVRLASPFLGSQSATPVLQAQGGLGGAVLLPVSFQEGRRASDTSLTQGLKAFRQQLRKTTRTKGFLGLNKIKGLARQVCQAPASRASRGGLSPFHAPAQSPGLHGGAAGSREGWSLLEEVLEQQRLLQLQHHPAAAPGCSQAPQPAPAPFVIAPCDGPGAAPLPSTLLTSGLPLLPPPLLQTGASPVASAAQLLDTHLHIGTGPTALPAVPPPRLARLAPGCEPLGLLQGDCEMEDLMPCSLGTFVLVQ

In the case of COc1c(F)cc(F)cc1-c1c[nH]c2ncc(-c3cnn(C4CCN(S(C)(=O)=O)CC4)c3)cc12 [Compound B, 3-(3,5-difluoro-2-methoxyphenyl)-5-(1-(1-(methylsulfonyl)piperidin-4-yl)-1H-pyrazol-4-yl)-1H-pyrrolo[2,3-b]pyridine], the clonogenic survival [1] is reported as “significantly enhanced carboplatin induced loss of clonogenic survival”, the “hematologic / hematopoietic toxicity” value [2] is reported as “minimal hematologic toxicity; also recorded: little effect on normal hematopoietic or organ function; also recorded: little or no hematopoietic toxicity” and the “xenograft growth and survival” value [3] is reported as “inhibited xenograft growth and prolonged the survival”. The “levels of γ-H2AX and tailed DNA” value [4] was “modestly increased”, the “comet tail moment induced with carboplatin” value [5] was “further enhanced” and the IC50 [6] was 351 nM.
